Test results as given in patent publication US9144576B2, “Topical antiviral formulations” (3B Pharmaceuticals, Inc., priority 2008, dated 2015).

What was measured:
[1] = system: HSV-1; test: In vitro assay for anti-HSV-1 mRNA activity (QuantiGene Plex 2.0 bDNA) in infected primary Adult Human Dermal Microvascular Endothelial Cells; type: cell-based, HSV type 1; conditions: variable slope fit; for LogIC50 (best-fit value): concentrations in μM, overnight incubation, triplicate
Description: (§1) In vitro assays for anti-HSV-1 and anti-HSV-2 mRNA activity are described in Example 1. Confluent Vero cell monolayers were infected with HSV type 1 or HSV type 2 at a multiplicity of infection of 10 and the resultant virus was used to infect primary Adult Human Dermal Microvascular Endothelial Cells for 1 hour; the supernatant was replaced with fresh culture media and then incubated overnight in the presence of various concentrations of acyclovir, 2-deoxy-D-glucose or an equimolar combination of the two compounds. After overnight incubation, the cells were harvested, lysed, and subjected to QuantiGene Plex 2.0 assay (Panomics, Inc., Fremont, Calif.) for quantitative assay of HSV-1 and HSV-2 mRNA. The QuantiGene Plex 2.0 assay combines branched DNA (bDNA) signal amplification and multi-analyte profiling beads (xMAP®) technologies to enable the detection and quantitation of multiple mRNA targets simultaneously. Briefly, confluent Vero cell monolayers were infected with HSV type 1 or HSV type 2 at a multiplicity of infection of 10 and the resultant virus was used to infect primary Adult Human Dermal Microvascular Endothelial Cells for 1 hour and then the supernatant was replaced with fresh culture media and then incubated overnight in the presence of various concentrations of acyclovir, 2-deoxy-D-glucose or an equimolar combination of the two compounds. […], this assay is considered to be a more sensitive and specific assay (bDNA) for the final readout when compared to an ELISA. The ELISA method while easier, can lack specificity to determine the difference between HSV1 and HSV2. The bDNA assay is a hybridization-based method of target-specific RNA quantitation that amplifies signal rather than target RNA, using labeled DNA probes. The QuantiGene Plex 2.0 system utilizes fluorescent microspheres (Capture Beads) as a support to capture specific RNA molecules. The ability to quantify multiple target-specific RNA molecules in a single sample lies in the design of the Probe Sets. […] The resulting fluorescence signal associated with individual Capture Beads is read on a Luminex flow cytometer. Signal is reported as median fluorescence intensity (MFI) and is proportional to the number of target RNA molecules present in the sample. […]

[2] = system: HSV-2; test: In vitro assay for anti-HSV-2 mRNA activity (QuantiGene Plex 2.0 bDNA) in infected primary Adult Human Dermal Microvascular Endothelial Cells; type: cell-based, HSV type 2; conditions: variable slope fit; for LogIC50 (best-fit value): concentrations in μM, overnight incubation, triplicate
Description: as §1

[3] = topical versus oral; cited from earlier work

| SMILES | HillSlope (best-fit value) [1] | LogIC50 (best-fit value) [1] | HillSlope (best-fit value) [2] | LogIC50 (best-fit value) [2] | drug concentration in the skin after local application, lower than after given orally [3] |
| --- | --- | --- | --- | --- | --- |
| O=CC[C@@H](O)[C@H](O)[C@H](O)CO [2 Deoxy D glucose, 2-deoxy-D-glucose] | −2.395 | 1.32 | −3.957 | 0.9029 | – |
| Nc1nc2c(ncn2COCCO)c(=O)[nH]1 [Acyclovir, 9-(2-hydroxyethoxymethyl)guanine] | −1.108 | 0.2509 | −1.113 | 0.2805 | 2-3 times |
